The source of these data is US20230203060A1 (GENFLEET THERAPEUTICS (SHANGHAI) INC., priority 2020, published 2023).

By IC50 is commonly meant the concentration that inhibits the measured activity by half.

The subject of assay [1] is KRAS G12C mutant NCI-H358 cells. The experiment in a line: Cell proliferation inhibition experiment, 3D spheroid, CellTiter-Glo, NCI-H358. The class given is cell-based, human. The note with it: Homo sapiens, NCI-H358, 120 h, NCI-H358 (KRAS G12C mutant) 3D spheroid, 5 days with compound, CellTiter-Glo; read-out: H358 IC50. The method in brief: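 Luminescence (CellTiter-Glo, 30 min incubation) was read after 5 days of compound treatment of overnight-formed spheroids of 800 H358 or 400 A549 cells in 2% FBS medium. Inhibition relative to DMSO and blank controls was fitted with a four-parameter model to yield IC50.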

The subject of assay [2] is phosphorylated ERK downstream of KRAS G12C in MIA PaCa2 cells. The experiment in a line: Cell p-ERK detection experiment (HTRF) in MIA PaCa2. The class given is cell-based, human. The note with it: Homo sapiens, MIA PaCa-2, 2 h, MIA PaCa2 cells, 2 hours with compound, Advance ERK phospho-T202/Y204 HTRF kit; read-out: p-ERK IC50. The text has this:
Raw materials and instruments: MIA PaCa-2 purchased from ATCC; article number: CRL-1420; batch number: 63143594; DMEM purchased from Gibco; article number: 11995-065; batch number: 2186878; FBS purchased from Gibco; article number: 10099-141; batch number: 2109290CP; Horse serum purchased from Gibco; article number: 16050-122; batch number: 1818976; Trypsin-EDTA purchased from Gibco; article number: 25200-072; batch number: 2085552; PS purchased from Gibco; article number: 15140-122; batch number: 2145451; DMSO purchased from VWR AMRESCO; article number: 0231-500ML; batch number: 0457C072; 96-well cell culture plate purchased from Corning; article number: 3599; batch number: 22718601; white opaque 96-well plate purchased from Cisbio; article number: 66PL96025; batch number: N°05; Advance ERK phospho-T202/Y204 kit purchased from Cisbio; article number: 64AERPEH; batch number: 11D; microplate reader purchased from PerkinElmer; model: Envision MLD2105-0020; equipment number 1050369.
MIA PaCa2 was a KRAS G12C mutant human pancreatic cancer cell line cultured in 10% FBS+2.5% Horse serum DMEM culture medium. Cells at logarithmic growth stage were taken, digested with trypsin-EDTA, then collected and counted, and 2.5E4 cells were inoculated in a 96-well cell culture plate and cultured overnight. A 3.16-fold gradient concentration stock solution of 1000× compound was prepared with DMSO, and diluted 200-fold to 5× compound stock solution with culture medium. On the second day after cell inoculation, 5× compound stock solution was added to each cell culture well, with a final concentration of 1× and a DMSO content of 0.1%. DMSO was used as experimental control (control). After the compound was added and cultured for two hours, the residual culture medium was removed. 50 μL of cell lysate (from Advance ERK phospho-T202/Y204 kit, the same below) was added to each well, mixed well and incubated for 30 minutes, and then 16 μL of the mixed solution was transferred to a white opaque 96-well plate, and 16 μL of cell lysate was added to the blank wells. After the transfer was completed, 4 μL of p-ERK HTRF antibody (from Advance ERK phospho-T202/Y204 kit) mixture was added to each well, incubated for 4 hours, and the fluorescence value was read with the microplate reader. The inhibition rate of the compound IR (%)=(RLU control -RLU compound)/(RLU control-RLU blank)×100% was calculated. The gradient dilution concentration of the compound and the corresponding cell proliferation inhibition rate were fitted by Prism 8 four-parameter method, and the IC50 value was calculated. The compounds prepared in the above embodiments of the present disclosure have inhibitory activity of 0.0001 μM to 1 μM on the phosphorylated ERK level downstream of the cell channel of KRAS G12C protein mutant; some compounds have inhibitory activity of 0.001 μM to 1 μM or 0.001 μM to 0.5 μM on phosphorylated ERK level downstream of cell channel of KRAS G12C protein mutant.

Structures are written as SMILES. Counter-ions that a name gives are not always drawn.

As for `C=CC(=O)N1CCN2C(=O)c3c(N4CC[C@@H]5C[C@@H]54)nc(-c4c(O)cccc4F)c(Cl)c3OC[C@H]2C1` (single isomer, unassigned) [Z39-2], the half-maximal inhibitory concentration (IC50) in assay [1] came to 7.8 nM; in assay [2], 88 nM.

Consider `C=CC(=O)N1CCN2C(=O)c3c(N4C[C@H](O)[C@H]4C)nc(-c4c(O)cccc4F)c(Cl)c3OC[C@H]2C1` (single isomer, unassigned) [Z102-4], for which the half-maximal inhibitory concentration (IC50) in assay [1] was 15.4 nM; in assay [2] it was 134 nM.

For the compound `C=CC(=O)N1CCN2C(=O)c3c(N4CCN(C5COC5)C[C@@H]4C)nc(-c4c(O)cccc4F)c(Cl)c3OC[C@H]2C1` (single isomer, unassigned) [Z239-1], in assay [1], the half-inhibitory concentration (IC50) is 15 nM.

`C=CC(=O)N1CCN2C(=O)c3c(N4C[C@@H](CO)CC4(C)C)nc(-c4c(O)cccc4F)c(Cl)c3OC[C@H]2C1` (single isomer, unassigned) [Z240-1]: the IC50 was determined as 2.5 nM in assay [1] and 19 nM in assay [2].

Take `C=CC(=O)N1CCN2C(=O)c3c(N4C[C@H](CO)CC4(C)C)nc(-c4c(O)cccc4F)c(Cl)c3OC[C@H]2C1` (single isomer, unassigned) [Z240-2]: the results for the concentration for half-maximal inhibition (IC50) in assay [1] and in assay [2] were 1.9 nM and 20 nM, respectively.

In the case of `C=CC(=O)N1CCN2C(=O)c3c(N4CC[C@H](OC)C4(C)C)nc(-c4c(O)cccc4F)c(Cl)c3OC[C@H]2C1` (single isomer, unassigned) [Z241a-1], the results for the IC50 in assay [1] and in assay [2] were 1.4 nM and 33 nM, respectively.

In the case of `C=CC(=O)N1CCN2C(=O)c3c(N4CC[C@@H](OC)C4(C)C)nc(-c4c(O)cccc4F)c(Cl)c3OC[C@H]2C1` (single isomer, unassigned) [Z241a-2], the results for the IC50 in assay [1] and in assay [2] were 0.7 nM and 9 nM, respectively.

Consider `C=CC(=O)N1CCN2C(=O)c3c(N4C[C@@](C)(O)CC4(C)C)nc(-c4c(O)cccc4F)c(Cl)c3OC[C@H]2C1` (single isomer, unassigned) [Z243-1], for which the IC50 in assay [1] was found to be 0.6 nM; in assay [2], 8 nM.

`C=CC(=O)N1CCN2C(=O)c3c(N4C[C@](C)(O)CC4(C)C)nc(-c4c(O)cccc4F)c(Cl)c3OC[C@H]2C1` (single isomer, unassigned) [Z243-2]: the IC50 in assay [1] came to 11.1 nM; in assay [2], 108 nM.

Turning to `C=CC(=O)N1CCN2C(=O)c3c(N4C[C@@H](OC)CC4(C)C)nc(-c4c(O)cccc4F)c(Cl)c3OC[C@H]2C1` (single isomer, unassigned) [Z244-1], the IC50 in assay [1] amounted to 1.9 nM; in assay [2], 31 nM.

In the case of `C=CC(=O)N1CCN2C(=O)c3c(N4C[C@H](OC)CC4(C)C)nc(-c4c(O)cccc4F)c(Cl)c3OC[C@H]2C1` (single isomer, unassigned) [Z244-2], the results for the IC50 in assay [1] and in assay [2] were 0.5 nM and 5 nM, respectively.

On to `C=CC(=O)N1CCN2C(=O)c3c(N4C[C@@H](O)CC4(C)C)nc(-c4c(O)cccc4F)c(F)c3OC[C@H]2C1` (single isomer, unassigned) [Z256-1], for which the IC50 in assay [1] was found to be 2.2 nM; in assay [2], 20 nM.

Consider `C=CC(=O)N1CCN2C(=O)c3c(N4C[C@@H](OC)CC4(C)C)nc(-c4c(O)cccc4F)c(F)c3OC[C@H]2C1` (single isomer, unassigned) [Z256a-1], for which the IC50 worked out at 3.4 nM in assay [1] and 42 nM in assay [2].

Regarding `C=CC(=O)N1CCN2C(=O)c3c(N4C[C@H](OC)CC4(C)C)nc(-c4c(O)cccc4F)c(F)c3OC[C@H]2C1` (single isomer, unassigned) [Z256a-2], the values for the 50% inhibitory concentration (IC50) in assay [1] and in assay [2] were 1.4 nM and 17 nM, respectively.

As for `C=CC(=O)N1CCN2C(=O)c3c(N4C[C@@](C)(O)CC4(C)C)nc(-c4c(O)cccc4F)c(F)c3OC[C@H]2C1` (single isomer, unassigned) [Z256b-1], the IC50 was 2.8 nM in assay [1] and 43 nM in assay [2].

With `C=CC(=O)N1CCN2C(=O)c3c(N4Cc5cn(C)nc5[C@H]4C)nc(-c4c(O)cccc4F)c(Cl)c3OC[C@H]2C1` (single isomer, unassigned) [Z291-1S, trifluoroacetate], the values for the 50% inhibitory concentration (IC50) in assay [1] and in assay [2] were 18.4 nM and 89 nM, respectively.

Turning to `C=CC(=O)N1CCN2C(=O)c3c(N4CC(N(C)CCOC)CC4(C)C)nc(-c4c(O)cccc4F)c(Cl)c3OCC2C1` (single isomer, unassigned) [Z296-1], the 50% inhibitory concentration (IC50) amounted to 0.4 nM in assay [1] and 8 nM in assay [2].

Regarding `C=CC(=O)N1CCN2C(=O)c3c(N4C[C@H](N(C)CCOC)CC4(C)C)nc(-c4c(O)cccc4F)c(Cl)c3OC[C@H]2C1` (single isomer, unassigned) [Z296-2], the results for the IC50 in assay [1] and in assay [2] were 2.4 nM and 32 nM, respectively.

On to `C=CC(=O)N1CCN2C(=O)c3c(N4C[C@H](N5CCOCC5)CC4(C)C)nc(-c4c(O)cccc4F)c(Cl)c3OC[C@H]2C1` (single isomer, unassigned) [Z297-1], for which the IC50 in assay [1] amounted to 1 nM; in assay [2] it was 11 nM.

With `C=CC(=O)N1CCN2C(=O)c3c(N4C[C@@H](N5CCOCC5)CC4(C)C)nc(-c4c(O)cccc4F)c(Cl)c3OC[C@H]2C1` (single isomer, unassigned) [Z297-2], the IC50 was 1 nM in assay [1] and 18 nM in assay [2].

Turning to `C=CC(=O)N1CCN2C(=O)c3c(N4CCN(C)[C@H](C)[C@@H]4C)nc(-c4c(O)cccc4F)c(Cl)c3OC[C@H]2C1` (single isomer, unassigned) [Z308a-1], the IC50 was found to be 7.1 nM in assay [1] and 71 nM in assay [2].

As to `C=CC(=O)N1CCN2C(=O)c3c(N4C[C@@H](N(C)C)CC4(C)C)nc(-c4c(O)cccc4F)c(Cl)c3OC[C@H]2C1` (single isomer, unassigned) [Z324-1], the IC50 worked out at 1.3 nM in assay [1] and 15 nM in assay [2].

For the compound `C=CC(=O)N1CCN2C(=O)c3c(N4C[C@H](N(C)C)CC4(C)C)nc(-c4c(O)cccc4F)c(Cl)c3OC[C@H]2C1` (single isomer, unassigned) [Z324-2], the results for the IC50 in assay [1] and in assay [2] were 4.4 nM and 34 nM, respectively.

On to `C=CC(=O)N1CCN2C(=O)c3c(N4C[C@H](O)CC4(C)C)nc(-c4ccccc4F)c(Cl)c3OC[C@H]2C1` (single isomer, unassigned) [Z325-2], for which the IC50 in assay [1] was determined as 6.1 nM; in assay [2] it was 61 nM.

Consider `C=CC(=O)N1CCN2C(=O)c3c(N4CC[C@@H](OC)C4(C)C)nc(-c4c(O)cccc4F)c(F)c3OC[C@H]2C1` (single isomer, unassigned) [Z327-1], for which the figures for the IC50 in assay [1] and in assay [2] were 4 nM and 66 nM, respectively.

`C=CC(=O)N1CCN2C(=O)c3c(N4CC[C@H](OC)C4(C)C)nc(-c4c(O)cccc4F)c(F)c3OC[C@H]2C1` (single isomer, unassigned) [Z327-2]: the IC50 in assay [1] stood at 8.4 nM; in assay [2], 172 nM.

Regarding `C=CC(=O)N1CCN2C(=O)c3c(N4CCO[C@](C)(COC)C4)nc(-c4c(O)cccc4F)c(Cl)c3OC[C@H]2C1` (single isomer, unassigned) [Z332-1], the IC50 in assay [1] was found to be 16 nM; in assay [2], 130 nM.

Turning to `C=CC(=O)N1CCN2C(=O)c3c(N4CCO[C@](C)(CO)C4)nc(-c4c(O)cccc4F)c(Cl)c3OC[C@H]2C1` (single isomer, unassigned) [Z333-1], in assay [1], the IC50 was 26 nM.

For the compound `C=CC(=O)N1CCN2C(=O)c3c(N4CC(O)CC4(C)C)nc(-c4c(O)cccc4F)c(C)c3OC[C@H]2C1` (single isomer, unassigned) [Z336-2], the IC50 in assay [1] was determined as 5 nM; in assay [2] it was 63 nM.

For `C=CC(=O)N1CCN2C(=O)c3c(N4C[C@@H](O)CC4(C)C)nc(-c4c(O)ccc(Cl)c4F)c(F)c3OC[C@H]2C1` (single isomer, unassigned) [Z340-1], the IC50 in assay [1] was 5.2 nM; in assay [2] it was 59 nM.

For `C=CC(=O)N1CCN2C(=O)c3c(N4C[C@H](O)CC4(C)C)nc(-c4c(O)ccc(Cl)c4F)c(F)c3OC[C@H]2C1` (single isomer, unassigned) [Z340-2], in assay [1], the IC50 came to 26.7 nM.
